# From US6627774B2, “N-deacetylthiocolchicine derivatives and pharmaceutical compositions containing them” (Indena S.p.A., priority 2001, dated 2003)
# System: MCF7-ADRr
# Type: cell-based
# Experimental: The cytotoxic activity was evaluated according to M. C. Alley et al., Cancer Research, 48, 589-601, […].
structure (smiles),measurement,value
COc1cc2c(c(OC)c1OC)-c1ccc(SC)c(=O)cc1[C@@H](NC(C)=O)CC2 [Thiocolchicine],MCF7-ADRr/MCF7,20000
